Experiment: LUNAR study safety: adverse events per CTCAE version 4.03, safety population
Assay type: in vivo, human
Conditions: for Anxiety / Confusional state / Mental status changes: psychiatric disorders; for Acute kidney injury / Urinary retention: renal and urinary disorders; for Acute respiratory failure / Atelectasis / Bronchial obstruction / Bronchopleural fistula / Chronic obstructive pulmonary disease / Cough / Dyspnoea / Esophago-bronchial fistula / Hemoptysis / Hypoxia / Interstitial lung disease / Pleural effusion / Pneumonia aspiration / Pneumonitis / Pulmonary embolism / Pulmonary hemorrhage / Respiratory failure: thoracic, and mediastinal disorders, respiratory; for Alopecia / Dermatitis exfoliative / Pruritus / Rash / Rash erythematous / Rash maculopapular / Skin erosion / Skin reaction / Skin toxicity: skin and subcutaneous tissue disorders; for Deep vein thrombosis / Embolism / Hypertension / Jugular vein thrombosis / Peripheral arterial occlusive disease / Vena cava embolism: vascular disorders
[1] = Grade 4, nervous system disorders
[2] = Grade 5, nervous system disorders

Protocol: Safety and treatment data were compiled from all patients who received any study therapy and were analyzed according to the actual treatment received. Analyses were performed using SAS software, version 9.4 (SAS Institute).

Question: What does the source list for CC(=O)O[C@@]12CO[C@@H]1C[C@H](O)[C@@]1(C)C(=O)[C@H](O)C3=C(C)[C@@H](OC(=O)[C@H](O)[C@@H](NC(=O)OC(C)(C)C)c4ccccc4)C[C@@](O)([C@@H](OC(=O)c4ccccc4)[C@H]21)C3(C)C [Docetaxel, docetaxel]?
Answer: Metastases to bone (Grade 4): 0 no. (%); Metastases to central nervous system (Grade 4): 0 no. (%); Metastases to meninges (Grade 4): 0 no. (%); Metastases to skin (Grade 4): 0 no. (%); Mouth ulceration (Grade 4): 0 no. (%); Mucosal inflammation (Grade 4): 0 no. (%); Multiple organ dysfunction syndrome (Grade 4): 0 no. (%); Muscular weakness (Grade 4): 0 no. (%); Myalgia (Grade 4): 0 no. (%); Myocardial infarction (Grade 4): 0 no. (%); Nausea (Grade 4): 0 no. (%); Neck pain (Grade 4): 0 no. (%); Neuropathy peripheral (Grade 4): 0 no. (%); Neutropenia (Grade 4): 10 (14.7) no. (%); Neutrophil count decreased (Grade 4): 4 (5.9) no. (%); Non-cardiac chest pain (Grade 4): 0 no. (%); Oedema peripheral (Grade 4): 0 no. (%); Oral candidiasis (Grade 4): 0 no. (%); Pancreatic failure (Grade 4): 0 no. (%); Pancreatitis (Grade 4): 0 no. (%); Pericardial effusion (Grade 4): 0 no. (%); Peripheral sensory (Grade 4): 0 no. (%); Platelet count decreased (Grade 4): 0 no. (%); Pneumonia (Grade 4): 0 no. (%); Pneumonia pseudomonal (Grade 4): 0 no. (%); Pneumonia staphylococcal (Grade 4): 0 no. (%); Pyelonephritis (Grade 4): 0 no. (%); Pyopneumothorax (Grade 4): 0 no. (%); Pyrexia (Grade 4): 0 no. (%); Refeeding syndrome (Grade 4): 0 no. (%); Respiratory tract infection (Grade 4): 0 no. (%); Right ventricular failure (Grade 4): 0 no. (%); Sepsis (Grade 4): 1 (1.5) no. (%); Septic shock (Grade 4): 0 no. (%); Skin infection (Grade 4): 0 no. (%); Stomatitis (Grade 4): 0 no. (%); Subileus (Grade 4): 0 no. (%); Thrombocytopenia (Grade 4): 1 (1.5) no. (%); Thyroiditis subacute (Grade 4): 0 no. (%); Tumor pain (Grade 4): 0 no. (%); Upper respiratory tract infection (Grade 4): 0 no. (%); Urinary tract infection (Grade 4): 0 no. (%); Urosepsis (Grade 4): 0 no. (%); Vomiting (Grade 4): 0 no. (%); Weight decreased (Grade 4): 0 no. (%); White blood cell count decreased (Grade 4): 2 (2.9) no. (%); Brain oedema [1]: 1 (1.5) no. (%); Cauda equina syndrome [1]: 0 no. (%); Dysarthria [1]: 0 no. (%); Embolic stroke [1]: 0 no. (%); Hemiparesis [1]: 0 no. (%); Motor dysfunction [1]: 0 no. (%); Nervous system disorder [1]: 0 no. (%); Neurologic neglect syndrome [1]: 0 no. (%); Neurotoxicity [1]: 0 no. (%); Peripheral sensorimotor neuropathy [1]: 0 no. (%); Quadriparesis [1]: 0 no. (%); Seizure [1]: 0 no. (%); Syncope [1]: 0 no. (%); Vocal cord paralysis [1]: 0 no. (%); Anxiety (Grade 4): 0 no. (%); Confusional state (Grade 4): 0 no. (%); Mental status changes (Grade 4): 1 (1.5) no. (%); Acute kidney injury (Grade 4): 0 no. (%); Urinary retention (Grade 4): 0 no. (%); Acute respiratory failure (Grade 4): 0 no. (%); Atelectasis (Grade 4): 0 no. (%); Bronchial obstruction (Grade 4): 2 (2.9) no. (%); Bronchopleural fistula (Grade 4): 0 no. (%); Chronic obstructive pulmonary disease (Grade 4): 0 no. (%); Cough (Grade 4): 0 no. (%); Dyspnoea (Grade 4): 1 (1.5) no. (%); Esophago-bronchial fistula (Grade 4): 0 no. (%); Hemoptysis (Grade 4): 0 no. (%); Hypoxia (Grade 4): 0 no. (%); Interstitial lung disease (Grade 4): 0 no. (%); Pleural effusion (Grade 4): 0 no. (%); Pneumonia aspiration (Grade 4): 0 no. (%); Pneumonitis (Grade 4): 0 no. (%); Pulmonary embolism (Grade 4): 0 no. (%); Pulmonary hemorrhage (Grade 4): 0 no. (%); Respiratory failure (Grade 4): 0 no. (%); Alopecia (Grade 4): 0 no. (%); Dermatitis exfoliative (Grade 4): 0 no. (%); Pruritus (Grade 4): 0 no. (%); Rash (Grade 4): 0 no. (%); Rash erythematous (Grade 4): 0 no. (%); Rash maculopapular (Grade 4): 0 no. (%); Skin erosion (Grade 4): 0 no. (%); Skin reaction (Grade 4): 0 no. (%); Skin toxicity (Grade 4): 0 no. (%); Deep vein thrombosis (Grade 4): 0 no. (%); Embolism (Grade 4): 0 no. (%); Hypertension (Grade 4): 0 no. (%); Jugular vein thrombosis (Grade 4): 1 (1.5) no. (%); Peripheral arterial occlusive disease (Grade 4): 0 no. (%); Vena cava embolism (Grade 4): 0 no. (%); Acute myocardial infarction (Grade 5): 0 no. (%); Alanine aminotransferase increased (Grade 5): 0 no. (%); Anemia (Grade 5): 0 no. (%); Anemia macrocytic (Grade 5): 0 no. (%); Any adverse event (Grade 5): 4 (5.9) no. (%); Arthralgia (Grade 5): 0 no. (%); Ascites (Grade 5): 0 no. (%); Aspergillus infection (Grade 5): 0 no. (%); Asthenia (Grade 5): 0 no. (%); Atrial tachycardia (Grade 5): 0 no. (%); Autoimmune colitis (Grade 5): 0 no. (%); Back pain (Grade 5): 0 no. (%); Blood bilirubin increased (Grade 5): 0 no. (%); Bone pain (Grade 5): 0 no. (%); Bronchiolitis (Grade 5): 0 no. (%); Bronchitis (Grade 5): 0 no. (%); C-reactive protein increased (Grade 5): 0 no. (%); COVID-19 pneumonia (Grade 5): 0 no. (%); Cancer pain (Grade 5): 0 no. (%); Cardiac failure congestive (Grade 5): 0 no. (%); Cardiac tamponade (Grade 5): 0 no. (%); Cardiac ventricular thrombosis (Grade 5): 0 no. (%); Cataract (Grade 5): 0 no. (%); Chest pain (Grade 5): 0 no. (%); Cholangitis (Grade 5): 0 no. (%); Cholecystitis (Grade 5): 0 no. (%); Cholelithiasis (Grade 5): 0 no. (%); Clostridium bacteremia (Grade 5): 0 no. (%); Coronary artery disease (Grade 5): 0 no. (%); Decreased appetite (Grade 5): 0 no. (%); Dehydration (Grade 5): 0 no. (%); Diarrhea (Grade 5): 0 no. (%); Diverticulitis (Grade 5): 0 no. (%); Drug hypersensitivity (Grade 5): 0 no. (%); Encephalitis (Grade 5): 0 no. (%); Esophagitis (Grade 5): 0 no. (%); Euthanasia (Grade 5): 1 (1.5) no. (%); Fatigue (Grade 5): 0 no. (%); Febrile neutropenia (Grade 5): 0 no. (%); Femoral neck fracture (Grade 5): 0 no. (%); Forced expiratory volume decreased (Grade 5): 0 no. (%); Gastroenteritis norovirus (Grade 5): 0 no. (%); Gastroenteritis salmonella (Grade 5): 0 no. (%); General physical health deterioration (Grade 5): 0 no. (%); Hematochezia (Grade 5): 0 no. (%); Hepatic enzyme increased (Grade 5): 0 no. (%); Hip fracture (Grade 5): 0 no. (%); Hypercalcemia (Grade 5): 0 no. (%); Hyperglycemia (Grade 5): 0 no. (%); Hyperkalaemia (Grade 5): 0 no. (%); Hypertriglyceridaemia (Grade 5): 0 no. (%); Hypoalbuminemia (Grade 5): 0 no. (%); Hypocalcaemia (Grade 5): 0 no. (%); Hypokalemia (Grade 5): 0 no. (%); Hyponatremia (Grade 5): 0 no. (%); Ileus (Grade 5): 0 no. (%); Infection (Grade 5): 0 no. (%); Intestinal dilatation (Grade 5): 0 no. (%); Intestinal hemorrhage (Grade 5): 0 no. (%); Intestinal perforation (Grade 5): 0 no. (%); Large intestine perforation (Grade 5): 0 no. (%); Leukopenia (Grade 5): 0 no. (%); Liver disorder (Grade 5): 0 no. (%); Localized oedema (Grade 5): 0 no. (%); Lung abscess (Grade 5): 0 no. (%); Lymphocyte count decreased (Grade 5): 0 no. (%); Lymphopenia (Grade 5): 0 no. (%); Malignant ascites (Grade 5): 0 no. (%); Malignant pleural effusion (Grade 5): 0 no. (%); Malnutrition (Grade 5): 0 no. (%); Metastases to bone (Grade 5): 0 no. (%); Metastases to central nervous system (Grade 5): 0 no. (%); Metastases to meninges (Grade 5): 0 no. (%); Mouth ulceration (Grade 5): 0 no. (%); Mucosal inflammation (Grade 5): 0 no. (%); Multiple organ dysfunction syndrome (Grade 5): 0 no. (%); Muscular weakness (Grade 5): 0 no. (%); Myalgia (Grade 5): 0 no. (%); Myocardial infarction (Grade 5): 0 no. (%); Nausea (Grade 5): 0 no. (%); Neck pain (Grade 5): 0 no. (%); Neutropenia (Grade 5): 0 no. (%); Neutrophil count decreased (Grade 5): 0 no. (%); Non-cardiac chest pain (Grade 5): 0 no. (%); Oedema peripheral (Grade 5): 0 no. (%); Oral candidiasis (Grade 5): 0 no. (%); Pancreatic failure (Grade 5): 0 no. (%); Pancreatitis (Grade 5): 0 no. (%); Pericardial effusion (Grade 5): 0 no. (%); Peripheral sensory (Grade 5): 0 no. (%); Platelet count decreased (Grade 5): 0 no. (%); Pneumonia (Grade 5): 0 no. (%); Pneumonia pseudomonal (Grade 5): 0 no. (%); Pneumonia staphylococcal (Grade 5): 0 no. (%); Pyelonephritis (Grade 5): 0 no. (%); Pyopneumothorax (Grade 5): 0 no. (%); Pyrexia (Grade 5): 0 no. (%); Refeeding syndrome (Grade 5): 0 no. (%); Respiratory tract infection (Grade 5): 0 no. (%); Right ventricular failure (Grade 5): 0 no. (%); Sepsis (Grade 5): 0 no. (%); Septic shock (Grade 5): 0 no. (%); Skin infection (Grade 5): 0 no. (%); Stomatitis (Grade 5): 0 no. (%); Subileus (Grade 5): 0 no. (%); Thrombocytopenia (Grade 5): 0 no. (%); Thyroiditis subacute (Grade 5): 0 no. (%); Tumor pain (Grade 5): 0 no. (%); Upper respiratory tract infection (Grade 5): 0 no. (%); Urinary tract infection (Grade 5): 0 no. (%); Urosepsis (Grade 5): 0 no. (%); Vomiting (Grade 5): 0 no. (%); Weight decreased (Grade 5): 0 no. (%); White blood cell count decreased (Grade 5): 0 no. (%); Brain oedema [2]: 0 no. (%); Cauda equina syndrome [2]: 0 no. (%); Dysarthria [2]: 0 no. (%); Hemiparesis [2]: 0 no. (%); Motor dysfunction [2]: 0 no. (%); Nervous system disorder [2]: 0 no. (%); Neurologic neglect syndrome [2]: 0 no. (%); Peripheral sensorimotor neuropathy [2]: 0 no. (%); Quadriparesis [2]: 0 no. (%); Seizure [2]: 0 no. (%); Syncope [2]: 0 no. (%); Vocal cord paralysis [2]: 0 no. (%); Anxiety (Grade 5): 0 no. (%); Confusional state (Grade 5): 0 no. (%); Mental status changes (Grade 5): 0 no. (%); Acute kidney injury (Grade 5): 0 no. (%); Urinary retention (Grade 5): 0 no. (%); Acute respiratory failure (Grade 5): 2 (2.9) no. (%); Atelectasis (Grade 5): 0 no. (%); Bronchial obstruction (Grade 5): 0 no. (%); Bronchopleural fistula (Grade 5): 0 no. (%); Chronic obstructive pulmonary disease (Grade 5): 0 no. (%); Cough (Grade 5): 0 no. (%); Dyspnoea (Grade 5): 0 no. (%); Esophago-bronchial fistula (Grade 5): 0 no. (%); Hemoptysis (Grade 5): 0 no. (%); Hypoxia (Grade 5): 0 no. (%); Interstitial lung disease (Grade 5): 0 no. (%); Pleural effusion (Grade 5): 0 no. (%); Pneumonia aspiration (Grade 5): 0 no. (%); Pneumonitis (Grade 5): 0 no. (%); Pulmonary embolism (Grade 5): 0 no. (%); Pulmonary hemorrhage (Grade 5): 0 no. (%); Respiratory failure (Grade 5): 1 (1.5) no. (%); Alopecia (Grade 5): 0 no. (%); Dermatitis exfoliative (Grade 5): 0 no. (%); Pruritus (Grade 5): 0 no. (%); Rash (Grade 5): 0 no. (%); Rash erythematous (Grade 5): 0 no. (%); Rash maculopapular (Grade 5): 0 no. (%); Skin erosion (Grade 5): 0 no. (%); Skin reaction (Grade 5): 0 no. (%); Skin toxicity (Grade 5): 0 no. (%); Deep vein thrombosis (Grade 5): 0 no. (%); Embolism (Grade 5): 0 no. (%); Hypertension (Grade 5): 0 no. (%); Jugular vein thrombosis (Grade 5): 0 no. (%); Peripheral arterial occlusive disease (Grade 5): 0 no. (%); Vena cava embolism (Grade 5): 0 no. (%); Anemia (Grade ≥3): 8 (11.8) no. (%); Any adverse event (Grade ≥3): 43 (63.2) no. (%); Neutropenia (Grade ≥3): 11 (16.2) no. (%); COVID-19 pneumonia (human, in vivo): 0 no. (%); Herpes zoster (human, in vivo): 0 no. (%); Adverse event leading to death (human, in vivo, 75 mg/m2): 4 (5.9) no. (%); Adverse event leading to discontinuation (in vivo): 1 (1.5) no. (%); Serious adverse event (in vivo): 28 (41.2) no. (%); patients who discontinued therapy due to intolerable toxicity (in vivo): four

Source: patent publication US20240399142A1, “Methods Of Using Alternating Electric Fields And Checkpoint Inhibitors” (NOVOCURE GMBH, priority 2023, published 2024)
